Results on 79 molecules are retold here after the METLIN SMRT retention time set (Domingo-Almenara et al. 2019).

The series in a line: gradient 5% acetonitrile 3 min, to 50% in 2 min, to 85% in 15 min, held 3 min, 100 µL/min. The note with it: column: Zorbax Extend-C18 2.1 x 50 mm; eluents: water / acetonitrile, 0.1% formic acid. Summed up: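 Standards, all pure, were combined into mixtures of ~100 molecules and run at 100 μL/min on a Zorbax Extend-C18 column (2.1 × 50 mm, 1.8 μm) with water and acetonitrile, each containing 0.1% formic acid. A coupled quadrupole time-of-flight mass spectrometer operated in positive and negative ionization mode. Retention time values come from computationally picked adduct peaks, each inspected manually.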
On to `O=C(Cc1ccccc1F)NCC(=O)Nc1nc2ccccc2[nH]1`, for which the RP-LC retention time was 632 s.
Take `COc1ccc(-c2csc(C)n2)cc1S(=O)(=O)N1CCN(c2ccccc2)CC1`: the RP-LC retention time was found to be 1060 s.
In the case of `COc1cccc(NC(=O)C2CCN(S(=O)(=O)c3ccc4c(c3)sc(=O)n4C)CC2)c1`, the RP-LC retention time turned out to be 845 s.
Molecule `CC(Oc1ccc(C(C)(C)C)cc1)C(=O)Nc1ccnn1Cc1ccco1` (centres undefined) came in with an RP-LC retention time of 1020 s.
In the case of `COc1ccc(NS(=O)(=O)c2cn(CC(C)C)c3ncccc23)cc1F` it was 896 s.
The molecule `CCOC(=O)c1noc2ncnc(Nc3cc(F)ccc3F)c12` registered an RP-LC retention time of 799 s.
Consider `O=S(=O)(Nc1ccc(F)cc1F)c1ccc(-c2nnc(C3CCC3)o2)o1`, for which the RP-LC retention time was 879 s.
As to `Cc1oc(C2CCC2)nc1C(=O)NCc1ccc2c(c1)OCO2`, the RP-LC retention time stood at 978 s.
Molecule `COc1cccc(CNC(=O)N2CCC3(CC2)NC(=O)c2ccccc2O3)c1` had an RP-LC retention time of 739 s.
`CCOC(=O)NCCS(=O)(=O)N1CCN(c2ccccc2F)CC1`: the RP-LC retention time was 774 s.
With `CCc1noc(NC(C)=O)c1-c1ccc(C)c(S(=O)(=O)NCc2ccccc2)c1`, the RP-LC retention time is 836 s.
Regarding `Cc1oc(C2CCN(C(=O)Nc3ccc(Cl)cc3F)CC2)nc1C(=O)N(C)C`, the RP-LC retention time came to 714 s.
As for `COc1ccc(NC(=O)Cn2c(C(C)C)nc3c(c2=O)CCN(Cc2ccccc2)C3)cc1OC`, the RP-LC retention time amounted to 659 s.
Regarding `O=C(NCCN1CCN(c2ccc(Cl)cc2)CC1)C1CC1`, the RP-LC retention time is 576 s.
As for `O=C(Nc1ccc(SCc2nnc(-c3ccccc3)o2)cc1)c1ccc(Br)o1`, the RP-LC retention time is 1010 s.
For the molecule `Cc1ccc(S(=O)(=O)N2CCC3(CC2)NCCN=C3NCc2cccc(F)c2)c(C)c1`, the RP-LC retention time turned out to be 750 s.
Regarding `COc1ccccc1N1CCN(c2cc(SCC(=O)NC(C)CCc3ccccc3)ncn2)CC1` (centres undefined), the RP-LC retention time came out at 1020 s.
For `CCCc1nnsc1C(=O)NCc1nc(C)no1`, the RP-LC retention time came to 656 s.
`COC(=O)CNC(=O)N1CCCC1c1cccc(C)c1` (centres undefined) displayed an RP-LC retention time of 734 s.
On to `CCS(=O)(=O)N(C1CC1)C1CCOC2(CCN(C(=O)c3sc(C)nc3C)CC2)C1` (centres undefined), for which the RP-LC retention time was 714 s.
In the case of `CCc1ccc(S(=O)(=O)N2CCC3(CC2)C(=O)N(CC)c2ccccc23)cc1`, the RP-LC retention time came out at 1140 s.
`CC(C)NC(=O)c1ccc(-c2nc3cc(NS(=O)(=O)c4cc(F)ccc4F)ccc3n2C)cc1`: the RP-LC retention time was 705 s.
For `COc1ccc2c(c1)C1(CCN(C(=O)NCc3ccc(C)cc3)C1)C(=O)N2` (centres undefined), the RP-LC retention time came out at 725 s.
`O=C(Nc1c(-c2ccccc2)nc2ccccn12)c1ccc(Br)cc1`: the RP-LC retention time is 684 s.
The value for `COc1cccc(-c2cc(C(=O)N3CCN(c4ncccn4)CC3)n(C)n2)c1` was 754 s; that for `CCn1nnc2c(N3CCc4cc(OC)c(OC)cc4C3C)ncnc21` (centres undefined) was 784 s.
For `CN1CCN(C(CNC(=O)Cc2ccc(Cl)cc2)c2ccc3c(c2)OCO3)CC1` (centres undefined), the RP-LC retention time is 587 s.
For the molecule `CC(=O)N1c2ccc(S(=O)(=O)N3CCC(C(=O)Nc4cccc(Cl)c4C)CC3)cc2CC1C` (centres undefined), the RP-LC retention time came to 895 s.
Molecule `CS(=O)(=O)N1CCC(C(=O)Nc2nnc(-c3ccc4c(c3)OCCO4)o2)CC1` came in with an RP-LC retention time of 646 s.
The value for `O=C(NCCCN1CCOCC1)C1CCN(c2nc3cccnc3s2)CC1` was 568 s; that for `CN(C)c1cccc(C(=O)NC2CCN(c3cc(-c4ccc(Cl)cc4)[nH]n3)C2)c1` (centres undefined) was 865 s.
In turn, `COc1cccc(Nc2c(-c3ccc(N(C)C)cc3)nc3cnccn23)c1` registered an RP-LC retention time of 771 s.
For `CC1=C2C3OC(=O)C(C)C3CCC2(C)C=C(Cl)C1=O` (centres undefined), the RP-LC retention time worked out at 914 s.
`O=c1c2scc(-c3ccc(Br)cc3)c2ncn1Cc1cccnc1` returned an RP-LC retention time of 775 s.
For the molecule `CCN1CCN(Cc2nc(-c3ccc(N4CCCC(C)C4)nc3)no2)CC1` (centres undefined), the RP-LC retention time was 610 s.
Take `Cc1ccc(Cc2c(C)nc3c(C(=O)NCCCN4CCOCC4)cnn3c2C)cc1`: the RP-LC retention time came out at 684 s.
`CCc1ccc(Nc2nc(C(=O)NCCCOC)nc3ccccc23)cc1` yielded an RP-LC retention time of 750 s.
With `Cc1nnc(-c2nnc(NC3CCCCC3)c3ccccc23)o1`, the RP-LC retention time stood at 688 s.
The value for `O=C(c1ccc(OCC2CCCN2C(=O)c2ccccc2F)cc1)N1CCCC1` (centres undefined) was 813 s; that for `C[C@H]1CN(C(=O)c2cc(F)cc(F)c2)C[C@@H]1c1nc(-c2ccccc2)no1` was 1040 s.
The molecule `CCN1CCN(C(=O)c2cnn(-c3cc(-c4nc(C5CC5)no4)ccn3)c2C)CC1` registered an RP-LC retention time of 641 s.
The value for `Cc1ccc(NC(=O)Nc2nc3ccccc3s2)cc1NC(=O)Nc1nc2ccccc2s1` was 1040 s; that for `Cc1sc(NC(=O)c2ccccc2Br)nc1-c1ccc2c(c1)NC(=O)C(C)O2` (centres undefined) was 943 s.
For `O=C(Cn1ccc2sccc2c1=O)Nc1ccc(F)c(F)c1`, the RP-LC retention time was 752 s.
`CN1CCN(c2nnc(SCC(=O)Nc3cccc(C(F)(F)F)c3)s2)CC1` had an RP-LC retention time of 560 s.
With `CCn1ccc(C(=O)NC2CCN(C3=NS(=O)(=O)C(c4ccccc4)=C3C)CC2)n1`, the RP-LC retention time came to 746 s.
`O=C(Nc1ccc(N2CCN(c3ccccc3)C2=O)nc1)c1ccccc1` yielded an RP-LC retention time of 906 s.
With `CN(CCNC(=O)CN1C(=O)CSc2cccn2-c2ccccc21)C1CCCCC1`, the RP-LC retention time was found to be 670 s.
For `O=C(c1ccc2cc[nH]c2c1)N1CCCN(c2cc(-c3ccc(Cl)cc3)[nH]n2)CC1`, the RP-LC retention time is 770 s.
The value for `Fc1ccc(-c2nnc(Cc3nc(-c4ccc(C(F)(F)F)cc4)no3)o2)cc1` was 1100 s; that for `Cc1ccc(-c2nc(N3CCSCC3)ncc2C(=O)O)cc1` was 918 s; that for `CC1CCCN(C(=O)C2CCN(CCc3c[nH]c4ncccc34)CC2)C1` (centres undefined) was 586 s.
On to `COc1cccc(Cn2cc(S(=O)(=O)N3CCCCC3)ccc2=O)c1`, for which the RP-LC retention time turned out to be 882 s.
In turn, `Cc1cccc(CNC(=O)c2cc3n(n2)CC(C)(C(=O)NC2CCCCC2)N(C)C3=O)c1` (centres undefined) returned an RP-LC retention time of 884 s.
For the molecule `COCC(=O)Nc1ccc(N2CCN(C3CCCCC3)CC2)cc1C(=O)O`, the RP-LC retention time was 603 s.
Take `N#Cc1ccc(-c2nc(-c3ccc(S(=O)(=O)N4CCC(C(=O)N5CCCC5)CC4)cc3)no2)cc1`: the RP-LC retention time was determined as 947 s.
The value for `CCOc1ccccc1NC(=O)N1CCC2(CC1)NC(=O)c1ccc(Cl)cc1N2` was 834 s.
With `CC(C)NC(=O)CCc1c(-c2ccc(Cl)cc2)nc2ccccn12`, the RP-LC retention time is 622 s.
In the case of `Clc1cccc(-c2noc3ncnc(N4CCN(c5ccccn5)CC4)c23)c1` it was 716 s; in that of `Cc1ccc(CNC(=O)C2CCCCC(=O)N2C)o1` (centres undefined), 644 s.
The value for `Cn1nccc1C(=O)N1CCC(c2noc(-c3ccccc3)n2)C1` (centres undefined) was 755 s; that for `C=CCn1c(SCC(=O)c2cc(C)n(CCOC)c2C)nc2sc(C)c(C)c2c1=O` was 1140 s.
In turn, `CC1CCN(C(=O)CN2C(=O)CCCc3cc(S(=O)(=O)N4CCCCC4)ccc32)CC1` returned an RP-LC retention time of 901 s.
Molecule `CCn1cc(C(CNC(=O)Nc2ccc(OC)cc2)c2cccnc2)c2ccccc21` (centres undefined) registered an RP-LC retention time of 700 s.
For the molecule `CCOc1cccc(CN2C[C@@H]3C(=O)N(CCOC)C(=O)[C@@H]3C2)c1`, the RP-LC retention time came out at 578 s.
For `COc1ccccc1CC(=O)Nc1ccc2c(c1)CCC(=O)N2`, the RP-LC retention time is 670 s.
In the case of `CCc1cccc(C)c1Nc1c(-c2ccc(C(=O)OC)cc2)nc2cnccn12`, the RP-LC retention time was determined as 982 s.
With `CNC(=O)N1CCCC(c2cccc(C(=O)N3CCN(c4ccccc4Cl)CC3)c2)C1` (centres undefined), the RP-LC retention time is 904 s.
As for `CCCCN1C(=O)C(C)(C(=O)N2CCN(c3ccccc3F)CC2)Oc2cccnc21` (centres undefined), the RP-LC retention time was determined as 1190 s.
`COc1cc(C(=O)Nc2nc(-c3ccc4c(c3)NC(=O)CO4)c(C)s2)cc(OC)c1OC` returned an RP-LC retention time of 860 s.
Turning to `Cc1cccc(-c2nc(-c3cccc(-c4ccnn4C)c3)no2)c1`, the RP-LC retention time is 1220 s.
The value for `Cc1cccc(-c2noc(C3CCCN3S(=O)(=O)c3ccc(Cl)cc3C)n2)c1` (centres undefined) was 1300 s; that for `COc1cccc(CN2CCc3nc(N4CCN(c5ccccc5F)CC4)ncc3C2)c1` was 785 s; that for `Cc1ccc(S(=O)(=O)N2CCC(CCNC(=O)NC3CCCC3)CC2)cc1` was 894 s.
For `Cc1noc(/C=C/c2ccc(S(=O)(=O)NCC3CCCO3)s2)c1NC(=O)C1CC1` (centres undefined), the RP-LC retention time came out at 677 s.
The value for `CCCn1c(=O)sc2cc(S(=O)(=O)N3CCC(C(=O)N4CCC(C)CC4)CC3)ccc21` was 994 s.
The molecule `COc1ccc(N2CCN(CCNC(=O)c3ccc(S(=O)(=O)N(C)C)cc3)CC2)cc1` came in with an RP-LC retention time of 589 s.
Molecule `CCCn1cnnc1C1CCCCN1S(=O)(=O)c1cccc(C#N)c1` (centres undefined) yielded an RP-LC retention time of 748 s.
On to `Cc1cccc(-c2nc(N3CC4(C)CC3CC(C)(C)C4)c3ccccc3n2)c1` (centres undefined), for which the RP-LC retention time is 1060 s.
